The values that follow come from EP0574781A2, “2-Amino-5-heterocyclic-substituted-1,4-benzodiazepines and their use in the treatment of aids” (priority 1992, dated 1993).

Structures are written as SMILES.

The target of the experiment is T1, HIV-TAT (Human immunodeficiency virus type 1 group M subtype B, UniProt P04608).
T1 construct: expressed in transfected cells; host or cells: COS cells
T1 sequence (P04608 whole entry): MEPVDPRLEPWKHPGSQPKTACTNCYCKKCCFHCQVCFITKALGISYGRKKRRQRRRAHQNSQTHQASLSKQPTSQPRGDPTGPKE
Nature of the experiment: anti-HIV-TAT assay (SeAP reporter under HIV-LTR versus RSV-LTR in transfected COS cells). It is filed as cell-based. The following applies: specific inhibition 100 [(1-A/B) - (1-C/D)] of SeAP under HIV-LTR versus RSV-LTR, concentrations tested 1 to 50 /1.M, compound added 24 hours post transfection, assayed 48 hours after addition, average of at least three tests. The procedure:
The compounds of formula I were tested for anti-HIV-TAT activity in an assay described in US Patent No. 5070010, comprising the following steps: • (a) putting both the expression of the Secreted Alkaline Phosphatase (SeAP) gene and the viral trasactivator TAT gene under the control of the HIV promoter LTR responsive to the action of the HIV transactivator TAT; • (b) transfecting cultured mammalian cells with plasmids which contain the gene constructs of (a) above and cause cellular production of the trasactivating factor TAT ad SeAP; • (c) adding the agent to be tested, here the compounds of formula I; and determining the amount of SeAP produced, by measuring SeAP enzymatic activity, whereby inhibition of SeAP production correlates with the anti-TAT inhibition activity.
In this assay, the inhibition of SeAP positively correlates with anti-TAT activity. The greater the ability of a agent to inhibit SeAP, the greater is its anti-TAT activity.
Specifically, with respect to the results reported below, the anti-HIV-TAT assay was run as follows: • At 24 hours post transfection 1, 10 and 50 /1.M of a test compound of formula I was added to the culture media of COS cells transfected with two plasmids, one containing the reporter gene which codes for SeAP under control of HIV-LTR, and the other containing the HIV-TAT gene also under control of HIV-LTR. […]
The anti-HIV-TAT activities of the test compounds were determined by measuring the amount of alkaline phosphatase in the supernatant media of cultures of cells in which SeAP gene expression was under the control of the HIV LTR promoter. The specific inhibitory activities of the test compounds were calculated according to the formula: 100 [(1-A/B) - (1-C/D)] where A and B are the alkaline phosphatase activites produced by HIV-LTR/SeAP in the presence and absence, respectively, of test compound, and C and D are the alkaline phosphatase activities produced by RSV-LTR/SeAP in the presence and absence, respectively, of test compound. […]
As to `CNC1=Nc2ccc(Cl)cc2C(c2cn[nH]c2)=NC1` [Example 2, 7-chloro-N-methyl-5-(1 H-pyrazol-4-yl)-3H-1,4-benzodiazepin-2-amine], the Anti-HIV-TAT activity result is given as “High/Medium”. The same measure for `CNC1=Nc2ccc(Cl)cc2C(c2cnn[nH]2)=NC1` [Example 1, 7-chloro-N-methyl-5-(1H-1,2,3-triazol-5-yl)3H-1,4-benzodiazepin-2-amine]: “High (High is >60% inhibition)”; for `CNC1=Nc2ccc(C)cc2C(c2cn[nH]c2)=NC1` [Example 3, N,7-Dimethyl-5-(1 H-pyrazol-4-yl)-3H-1,4-benzodiazepin-2-amine]: “High/Medium”.
